Data published in paper PMC12441774, “Proteolytic stabilization of a spider venom peptide results in an orally active bioinsecticide” (Pest Management Science, 2025).
Bridges are numbered along the chain shown (N, C = ends). Where no end group is shown, it is not given here.

What was measured:
Myzus persicae = assay: Greenhouse trial on green peach aphids on cucumbers; type: in vivo; conditions: Admire Pro 0.088 L product ha^−1; four applications
Protocol: Contact activity of Ta1b‐QA on green peach aphids (Myzus persicae (Sulzer, 1776)) on cucumbers in the greenhouse was performed in cooperation with A.C.D.S Research in North Rose, NY. The study was a randomized complete block design (RCBD), with treatments replicated six times, plots consisting of three pots each containing two to three plants. […] Treatments were applied four times, at 6–8‐day intervals, with a backpack CO2 sprayer in a spray volume of 374 L ha^−1. The number of aphids per plant was counted at regular intervals (0, 4, 11, 17, 23 and 29 d after first application). Cumulative insect‐days (defined as the area under the insect population curve as a measure of pest pressure) were calculated based on those six rating dates, then converted to % control relative to the untreated check using Abbott's formula. One replicate was removed due to a lack of pest pressure in the untreated check. Data were analyzed by one‐way ANOVA followed by a Tukey HSD LSM test with significance set at P < 0.05 (GraphPad Prism).

[1] = Gut enzyme digestion, S. frugiperda gut extract; type: in vitro ADME, Spodoptera frugiperda; conditions: pH 8.8; extract diluted ten-fold, single exponential decay fit, HPLC; read-out: Degradation half-life in S. frugiperda gut extract
Protocol: (§1) Larvae of H. zea, Spodoptera frugiperda Smith and Abbot, 1797, and Trichoplusia ni Hubner, 1802 were purchased from Benzon Research and reared to fifth instar on general purpose lepidopteran diet. Manduca sexta L. were purchased from Carolina Biological Supply (Burlington, NC) and reared to fifth instar on the supplied diet. Larvae were anesthetized on ice for 30 min, pinned on a dissection plate, and opened laterally with microdissection scissors. The foregut, midgut and hindgut were excised and washed using sterile water to remove any excess hemolymph and then transferred into a chilled 2‐mL microcentrifuge tube. The extracts were spun in a microcentrifuge at 10000 g to pellet the solids. The liquid fractions were carefully removed, sterile filtered, and stored at −80°C for future use.
(§2) For gut enzyme digestion studies, gut extract was diluted 10× with the dilution buffer (30 mM Tris–HCl, pH 8.8) and 0.5–1 mg mL^−1 of Ta1b. Samples were taken from the digestion mixture at defined timepoints and mixed with a 1:6 ratio of stop buffer (Tris–HCl pH 1–2) to halt further digest of the peptide. Samples were sterile filtered and analyzed by HPLC to determine peptide integrity and concentration.

[2] = Gut enzyme digestion, M. sexta gut extract; type: in vitro ADME, Manduca sexta; conditions: M. sexta fifth instar gut extract diluted 10× in 30 mM Tris–HCl pH 8.8, 0.5–1 mg mL^−1 peptide, HPLC, single exponential decay fit
Protocol: as §1, §2

[3] = Circular dichroism thermal denaturation; type: physicochemical; conditions: CD ellipticity at 220 nm, 0.4–0.6 mg mL^−1 peptide in 10 mM sodium phosphate pH 7.0, 2°C min^−1 up to 95°C, Boltzmann sigmoidal fit, 3–4 replicates
Protocol: Thermal denaturation profiles were collected on a Jasco‐J1500 CD spectrophotometer in a 0.2‐cm cuvette at a peptide concentration of 0.4–0.6 mg mL^−1 in 10 mM sodium phosphate, pH 7.0. Ellipticity was monitored at 220 nm every 1°C up to 95°C at a rate of 2°C min^−1. Denaturation curves were fitted with a Boltzmann sigmoidal function (GraphPad Prism) to determine the melting point (T m) for a single replicate. 3–4 replicates were run and the calculated T m values of each variant peptide was tested for a statistically significant difference relative to the rTa1b peptide or Ta1b‐QA commercial peptide, as appropriate, using an unpaired, two‐tailed, heteroscedastic student t's test (Microsoft Excel, Redmond, WA).

Helicoverpa zea = assay: Insecticidal activity by injection into fourth instar larvae; type: in vivo; conditions: for Insecticidal LD50, injection, H. zea (95% CI): fourth instar larvae, 1 μL into penultimate proleg, mortality 24 h after injection, eight larvae per treatment, at least triplicate
Protocol: Helicoverpa zea (Boddie, 1850) larvae were reared from eggs (Benzon, Carlisle, PA) to fourth instar on general purpose lepidopteran diet (F9772, Frontier Agricultural Sciences, Newark, DE). Pre‐weighed larvae immobilized on ice were injected into their penultimate proleg as described for M. domestica with 1 μL solution and eight larvae per treatment in at least triplicate. After injection, larvae were placed in a well of a 32‐well tray filled with 5 mL lepidopteran diet. The trays were then placed in an incubator at 28° C with 16:8 h light: dark cycle and evaluated 24 h after injection for mortality.
(§3) To compare the potency of Ta1b, we also injected the following active ingredients into M. domestica and H. zea: GS‐ω/κ (Spear, Vestaron), spinosad (Monterey Garden Insect Spray, Monterey), thiamethoxam (Optigard® Flex, Syngenta), and chlorantraniliprole (ALTACOR®, FMC).

[4] = Gut enzyme digestion, stated jointly for three lepidopteran gut extracts; type: in vitro ADME, H. zea, S. frugiperda, T. ni; conditions: 10‐fold diluted gut extract, single exponential decay, followed up to 21 h
Protocol: as §1, §2

[5] = Gut enzyme digestion, H. zea gut extract; type: in vitro ADME, Helicoverpa zea; conditions: pH 8.8; extract diluted ten-fold, single exponential decay fit, HPLC; read-out: Degradation half-life in H. zea gut extract
Protocol: as §1, §2

Musca domestica = assay: Insecticidal activity by injection into adult house flies; type: in vivo; conditions: for Insecticidal LD50, injection, M. domestica (95% CI): adult house flies 12–18 mg, 0.5 μL into dorsal thorax, mortality 24 h post‐injection, 10 flies per treatment, at least triplicate, four‐parameter sigmoidal fit
Protocol: Adult house flies (Musca domestica L.) were immobilized with CO2 gas and those with an average weight of 12–18 mg were selected for injection. Purified solutions of Ta1b and variants were diluted in water and injected into the dorsal thorax with a 1‐cc syringe and 30‐gauge needle using a hand microapplicator (Burkard, Rickmansworth, England). Each adult was injected with 0.5 μL of solution with 10 flies per treatment in at least triplicate. Water was used as a negative control. Flies were placed into a container with moist filter paper and scored for mortality 24 h post‐injection. Ten non‐injected flies were placed in a container to assess CO2 mortality. Response curves were fitted with a four‐parameter sigmoidal function (GraphPad Prism, Boston, MA) to determine LD50 values.
as §3

bovine trypsin = biological target: T1, bovine trypsin (Bos taurus, UniProt P00760); assay: Protease stability, commercial trypsin digestion; type: in vitro ADME; conditions: pH 8.8, room temperature, HPLC chromatogram
T1 construct: purchased Sigma-Aldrich
T1 sequence (P00760 24-246): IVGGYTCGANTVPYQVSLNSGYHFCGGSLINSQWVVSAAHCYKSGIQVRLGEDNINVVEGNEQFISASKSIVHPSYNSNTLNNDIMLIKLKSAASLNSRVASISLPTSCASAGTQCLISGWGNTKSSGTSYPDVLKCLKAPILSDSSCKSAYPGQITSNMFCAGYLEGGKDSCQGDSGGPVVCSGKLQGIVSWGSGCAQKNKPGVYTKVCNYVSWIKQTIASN
Protocol: (§4) For commercial enzyme digestion studies, bovine trypsin (Sigma‐Aldrich, St. Louis, MO) was prepared at a concentration of 1 mg mL^−1 in 50 mM Tris–HCl pH 8.8, 100 mM NaCl. Bovine chymotrypsin (Sigma‐Aldrich) was prepared at a concentration of 1 mg ml^−1 in 50 mM MES pH 6.0, 100 mM NaCl. For each digestion condition, 5 μL of trypsin or chymotrypsin solution were added to 200 μL of 10.7 mg mL^−1 peptide and incubated at room temperature. Samples were taken at defined timepoints, sterile filtered, and analyzed immediately by HPLC.

[6] = Protease stability, commercial trypsin digestion; type: in vitro ADME, bovine; conditions: bovine trypsin 1 mg mL^−1 in 50 mM Tris–HCl pH 8.8, 100 mM NaCl; 5 μL added to 200 μL of 10.7 mg mL^−1 peptide; room temperature; HPLC; read-out: Degradation half life, Trypsin
Protocol: as §4

H. zea neonates = assay: Insecticidal activity by foliar spray (lettuce leaf disk feeding); type: in vivo, Helicoverpa zea
Protocol: Organic romaine lettuce was cut into 30‐mm diameter disks and sterilized with a 140‐ppm bleach solution followed by a triple rinse in water. The lettuce disks were then sprayed on either side using a Potter Tower Sprayer (Burkard, Rickmansworth, England) with insecticidal solutions, allowing them to dry between sprays. Once fully sprayed and dried, disks were placed into an arena, which was a 32‐well rearing tray containing 5 mL of 1% w/v agar. One leaf disk was placed in each well and a single neonate H. zea was applied to each of the 12 leaf discs per treatment with four experimental replicates per treatment. The trays were then placed in a 28° C incubator with a 16:8 h light: dark cycle. Mortality was evaluated 4 days after application.

[7] = Gut enzyme digestion, T. ni gut extract; type: in vitro ADME, Trichoplusia ni; conditions: pH 8.8; extract diluted ten-fold, single exponential decay fit, HPLC; read-out: Degradation half-life in T. ni gut extract
Protocol: as §1, §2

Pieris brassicae = assay: Field trial on cabbage caterpillar on cabbage; type: in vivo; conditions: spinosad (Laser, 96 g product ha^−1) or Btk alone; two applications 7 days apart; four replicate plots
Protocol: A dose–response of U1‐AGTX‐Ta1b‐QA (Ta1b‐QA) combined with Bacillus thuringiensis subsp. kurstaki (Btk; DiPel DF®, Valent) was performed by Agricola 2000 in a randomized complete block design (RCBD) on cabbage caterpillar (Pieris brassicae L.) on cabbage in Palagiano, Italy with four replicate plots of 1 × 15 m in open‐field containing 25 plants each. Treatments included an untreated check, three rates (22, 34, 45 g AI ha^−1) of an 8.5% w/w spray‐dried sample of Ta1b‐QA together with Btk (DiPel DF®, Valent, 0.5 kg product ha^−1), and the reference standard spinosad (Laser®, Corteva, 96 g product ha^−1). Treatments were applied two times, 7 days apart, with a backpack CO2 sprayer in a spray volume of 800 L ha^−1. […] Data were analyzed by one‐way ANOVA followed by a Tukey HSD LSM test with significance set at P < 0.05 (GraphPad Prism).

[8] = injection, Supplementary Figure 4
[9] = injection, Supplementary Table 1

| Molecule | Mean % control of cumulative insect‐days relative to the untreated check, reference standard (Myzus persicae) | half-life [1] | Degradation half life, Gut extract [2] | half-life ([2]; read-out: Degradation half life, Gut extract) | Melting temperature Tm (± SEM) [3] | Insecticidal LD50, injection, H. zea (95% CI) (Helicoverpa zea) | LD50 against H. zea (Helicoverpa zea; [8]) | H. zea LD50 (95%CI) (Helicoverpa zea; [9]) | Degradation half‐lives in gut extracts from H. zea, S. frugiperda, and T. ni [4] | half-life [5] | Insecticidal LD50, injection, M. domestica (95% CI) (Musca domestica) | LD50 against house flies (Musca domestica; [8]) | Housefly LD50 (95%CI) (Musca domestica; [9]) | Digestion by bovine trypsin (HPLC) (bovine trypsin) | half-life at 10.4 mg mL^-1 [6] | Day 4 mortality of H. zea on treated lettuce leaves, peptide alone (H. zea neonates; 100 μg cm^−2, neonates, compared to untreated) | Day 4 mortality of H. zea on treated lettuce leaves, peptide in combination with Btk (H. zea neonates; 100 μg cm^−2 peptide with sublethal Btk 0.17 μg cm^−2, neonates) | half-life [7] | Mean % control of larvae relative to the untreated check, comparators (Pieris brassicae) |
| --- | --- | --- | --- | --- | --- | --- | --- | --- | --- | --- | --- | --- | --- | --- | --- | --- | --- | --- | --- |
| O=[N+]([O-])NC1=NCCN1Cc1ccc(Cl)nc1 [imidacloprid] | 90.4% |  |  |  |  |  |  |  |  |  |  |  |  |  |  |  |  |  |  |
| EPDEICRARMTNKEFTYKSNVCNNCGDQVAACEAECFRNDVYTACHEAQKG (disulfide 6-36, 22-32, 25-45) [Ta1b] |  | 26.4 min | under 2 min | 1.4 min | 73.7 ± 0.4 °C | 2.4 (1.7–3.4) nmol g^−1 | 2560 pmol/g | 2.4 (1.7-3.4) pmol/g | 0.5 to 2 h | 118 min | 0.27 (0.23–0.32) nmol g^−1 | 310 pmol/g | 0.27 (0.23-0.32) pmol/g | resulted in digestion of the peptide | 288 min | no activity | no activity | 38.1 min |  |
| spinosad |  |  |  |  |  | 0.20 (0.14–0.31) nmol g^−1 |  |  |  |  | 1.5 (0.9–2.4) nmol g^−1 |  |  |  |  |  |  |  | 57.8% |
